Values after ≈ are worked out from the molar mass of the structure shown.
Experiments:
Pharmacokinetic analysis = conditions: rat
Experimental: The photoperiod of 12 h was maintained. […] 120 male rats were randomly divided into 30 groups of 4 animals each corresponding to the time points of blood collection. […] Rats were fasted (Approximately 4 h) before administration of drug. On the other hand, AND at the dose of 10-mg/kg was administered intravenously (i.v.) for comparative studies. Plasma concentration data was analyzed and computed for pharmacokinetic parameters. The following pharmacokinetic parameters were assessed: ke (h), t½ (h), Cmax (μg/ml), AUClast (h.μg/ml), AUCinf (h.μg/ml), MRT (h), CLTotal (L/h), Vd (L) and F%.

[1] = after 2 h, simulated intestinal fluid pH 7.2, 37±2° C., 50 rpm, 100 mg AND or equivalent
Experimental: The temperature of SIF was maintained at 37±2° C. At specified time intervals, 2 ml of SIF was taken and replaced with identical volume. Subsequently, all the samples were filtered through 0.22 μm membrane filter and assayed for drug content at 225 nm.

[2] = Solubility analysis by saturated solution method; conditions: 37±1° C., 24 hrs, 100 rpm
Experimental: After that, suspension was filtered and 0.1 ml of the filtrate was diluted with water up to 1 ml. The contents in the aliquot were measured by HPLC method (Sajeeb BK, 2015). All measurements were carried out in triplicate (n=3).

Structure (SMILES): C=C1CC[C@@H]2[C@](C)(CO)[C@H](O)CC[C@@]2(C)[C@@H]1C/C=C1/C(=O)OC[C@H]1O [Andrographolide]
- AUC inf (Pharmacokinetic analysis; Oral, 100 mg/kg): 1845.58 ± 305.77 µg·h/mL
- AUC last (Pharmacokinetic analysis; Oral, 100 mg/kg): 1223.6 ± 143.09 µg·h/mL
- CLTotal (Pharmacokinetic analysis; Oral, 100 mg/kg): 0.055 ± 0.008 L/h
- Cmax (Pharmacokinetic analysis; Oral, 100 mg/kg): 239.6 ± 75.37 µg/mL
- Vd (Pharmacokinetic analysis; Oral, 100 mg/kg): 0.468 ± 0.060 L
- t1/2 (Pharmacokinetic analysis; Oral, 100 mg/kg): 5.92 ± 0.21 h
- tmax (Pharmacokinetic analysis; Oral, 100 mg/kg): 2 h
- F (bioavailability) (Pharmacokinetic analysis; Oral, 100 mg/kg, versus AND i.v. 10 mg/kg): 15.87±3.84%
- AUC inf (Pharmacokinetic analysis; i.v., 10 mg/kg): 891.08 ± 179.75 µg·h/mL
- AUC last (Pharmacokinetic analysis; i.v., 10 mg/kg): 801.14 ± 181.07 µg·h/mL
- CLTotal (Pharmacokinetic analysis; i.v., 10 mg/kg): 0.011 ± 0.002 L/h
- MRT (Pharmacokinetic analysis; i.v., 10 mg/kg): 1.11 ± 0.04 h
- Vd (Pharmacokinetic analysis; i.v., 10 mg/kg): 0.013 ± 0.003 L
- t1/2 (Pharmacokinetic analysis; i.v., 10 mg/kg): 0.859 ± 0.031 h
- MRT (Pharmacokinetic analysis; in vivo, po, 100 mg/kg): 1.49 ± 0.0.085 h
- release [1]: 27.89±1.32%
- solubility in aqueous phase [2]: 6.39 ± 0.47 µg/mL (≈ 18.2 µM)

From US20210353590A1 (priority 2020, published 2021)
